For one data set, the system named is Caco-2 cells. Kind of data set: Blockage of cytotoxic effect of microparticle-FimH, flow cytometry. It is filed as cell-based. The settings on record: Caco2. The text has this:
It was shown that upon binding of FimH adhesin to uroplakin UPIIIa its cytoplasmic tail undergoes phosphorylation on a specific threonine residue by casein kinase II, followed by an elevation of intracellular calcium triggering apoptosis (Thumbikat, P.; Berry, R. E.; Zhou, G.; Billips, B. K.; Yaggie, R. E.; Zaichuk, T.; Sun, T.-T.; Schaeffer, A. J.; Klumpp, D. J. PLoS Pathog 2009, 5, e1000415). […] It is needed to mentioned that according to our observations that Caco2 cells, unlike human blood cells, (Bilyy R. O.; Shkandina, T.; Tomin, A.; Muñoz, L E.; Franz, S.; Antonyuk, V.; Kit, Y. Y.; Zirngibl, M.; Fürnrohr, B. G.; Janko, C.; Lauber, K.; Schiller, M.; Schett, G.; Stoika, R. S.; Herrmann, M., J. Biol. Chem. 2012, 287, 496-503) are very quickly converted from apoptotic to secondary necrotic (PI-positive). […]
Cell viability was assessed by a trypan blue exclusion test. […]
Apoptotic cells were identified by using annexin V-FITC and PI, according to the manufacturer's protocol. […] Cells were then resuspended in a solution of annexin V-FITC and PI prepared in Ringer buffer, incubated 30 min at 4° C. in the dark, and analyzed on a FACS scan flow cytometer (BD Biosciences). A minimum of 10,000 events per sample was recorded. […]

Data set [1] relates to CD-associated E. coli strain AIEC LF82. Kind of data set: Hemagglutination inhibition (HAI) with AIEC LF82, guinea pig erythrocytes. The format is cell-based, Escherichia coli. As to the method:
AIEC adhesion to the gut occurs through the binding of FimH adhesins to the mannosylated glycans of intestinal cells. This scenario was first mimicked here with the highly mannosylated glycocalyx of guinea pig erythrocytes.
A two-fold dilution series of the antagonists was added to wells containing guinea pig erythrocytes and AIEC LF82 bacteria. The formation of the cross-linked network (hemagglutination) due to the interaction of the E. coli FimH adhesins with the glycocalyx of the erythrocytes was prevented at a certain concentration of inhibitors. The lowest concentration at which hemagglutination is still inhibited is defined as the inhibition titer of the antagonist. HM was included in the assay to obtain a relative inhibitory concentration (rIC) for the antagonists by dividing the inhibitory concentration (IC) of the substance of interest by the value for HM. In fact, rICs are more accurate than rough inhibition titers to compare the potency of antagonists evaluated in different assays.

In a further data set the test system is human Jurkat T-cell line. As to the kind of experiment: Toxicity of 13 towards Jurkat T-cells. To be noted: 100 nM. The format is cell-based.
The target in data set [2] is T1, FimH (Escherichia coli, UniProt P08191). It is filed as binding. The settings on record: competitive ELISA. As to the method: Journal of the American Society for Mass Spectrometry, 2009. […] Tested compounds were added to wells following with FimH treatment.
Plates were coated with 100 μl of 10 mg/ml solution of RNAse-B in 100 mM carbonate/bicarbonate buffer pH 9.6. […] 2 h. Then washed three times with 10 mM PBS containing 0.05% Tween-20. […] Wells were washed three times with 10 mM PBS+0.05% Tween-20. 100 μl of anti-body conjugated to horseradish peroxidase (1:5000) was added in buffer and incubated for 1 h at room temperature. Then washed three times with 10 mM PBS+0.05% Tween-20. Added 100 μl of TMB and incubated in dark for 2-5 min. The reaction was stopped with 100 μl/well 1N sulfuric acid. Plate absorbance was analyzed at 450 nm using microplate reader.
Target sequence in this assay (P08191 22-300): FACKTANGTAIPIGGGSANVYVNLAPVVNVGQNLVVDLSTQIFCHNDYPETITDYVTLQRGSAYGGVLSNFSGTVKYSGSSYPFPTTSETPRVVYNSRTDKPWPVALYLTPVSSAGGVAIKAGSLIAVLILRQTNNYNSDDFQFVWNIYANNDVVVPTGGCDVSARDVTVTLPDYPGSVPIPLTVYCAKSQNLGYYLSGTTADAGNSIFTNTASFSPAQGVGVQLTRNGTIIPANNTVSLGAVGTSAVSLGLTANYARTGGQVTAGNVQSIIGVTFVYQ

Data set [3] has as its system AIEC strain LF82 adhesion to T84 intestinal epithelial cells. As to the kind of experiment: Adhesion assay on T84 cells with thiazolylaminomannosides (Example 22.3). It is filed as cell-based, Escherichia coli. On the procedure: T84 Intestinal Epithelial cells (overexpressing the receptor CEACAM6) were beforehand incubated for 1 h with the synthetic thiazolylaminomannosides 6-20 (examples 3-17) at different concentrations. Each compound was tested four times at concentrations of 0.1, 1, 10 and 100 μM.
The cells were then infected in the presence of inhibitory compounds by the AIEC strain of reference LF82 for 3 hours at a multiplicity of infection of 10 bacteria to a cell. After 3 h of incubation, the monolayer was washed and the number of AIEC bacteria associated with cells was counted. The level of adhesion of AIEC LF82 strain in the presence of inhibitors (residual adhesion) was expressed relatively to the level of adherence in the absence of any treatment (considered 100%) (FIG. 10).

In data set [4] the test system is AIEC LF82 bacteria on colonic tissue from transgenic mice expressing human CEACAM6. Kind of data set: Ex-vivo adhesion assay on colonic tissue of CEABAC10 mice. Also on record: species or system CEABAC10 transgenic mice. As to the method: E. coli strain LF82 was isolated from a chronic ileal lesion of a patient with Crohn's disease (CD). Bacteria were grown routinely in Luria-Bertani (LB) broth overnight at 37° C.
Adhesion assay of AIEC LF82 bacteria were performed using colonic tissue from transgenic mice expressing the human CEACAM6 protein (C. H. Chan, C. P. Stanners “Novel mouse model for carcinoembryonic antigen-based therapy”, Mol Ther. 2004; 9, 775-785). Briefly, 10 to 12-week-old FVB/N CEABAC10 transgenic mice were anesthetized, euthanized by cervical dislocation and colons were removed. Colons were washed twice in phosphate buffer saline (PBS) and were segmented in 4 independent loops of ≈0.6 cm. A volume of 100 μL of LF82 bacteria at 2×10^6 bacteria/mL in PBS or of a mix of LF82 bacteria+D-mannose (1 μmol and 10 μmol) or compound 13 (0.1 μmol and 0.01 μmol) were injected into the loops. Loops were incubated 1 h at 37° C. in an atmosphere containing 5% of CO2, and then opened and washed 4 times in PBS. Tissues were homogenized, appropriately diluted and plated onto Luria-Bertani agar plates containing ampicillin (100 μg/mL) and erythromycin (20 μg/mL) to select AIEC LF82 bacteria.
Entire colons from CEABAC10 mice were collected and washed two times with PBS. The colon was divided in 4 isolated loops and 100 μL of a bacterial suspension containing […] bacteria/mL with or without inhibitory compounds were injected into the loops. D-mannose was tested at a dose of 1 and 10 μmol and monovalent 13 was tested at a dose of 0.01 and 0.1 μmol. After a 1 h-period of incubation, samples were extensively washed and homogenized to numerate adherent bacteria. Bacterial adhesion was expressed as percentages of residual adhesion (100% corresponds to the adhesion in absence of any compound).

The target of data set [5] is T1, FimH. Kind of data set: Isothermal titration calorimetry of compound 6. It is filed as binding. On the procedure:
For compound 6 (example 3), the enthalpy, the affinity equilibrium constant Ka and the molar ratio have moreover been measured using ITC. Integrated heat effects were analyzed by nonlinear regression using a single-site binding model (Origin 7.0). The experimental data fitted to a theoretical titration curve gave the association constant (Ka), the enthalpy of binding (ΔH) and the molar ratio n. The entropic contribution to the affinity and the change in Gibbs free energy (ΔG) have been calculated from the equation ΔG=ΔH−TΔS=−RTlnKa, where T is the absolute temperature and R is the molar gas constant (8.314 J·mol−1·K−1).
Target sequence in this assay (P08191 22-179): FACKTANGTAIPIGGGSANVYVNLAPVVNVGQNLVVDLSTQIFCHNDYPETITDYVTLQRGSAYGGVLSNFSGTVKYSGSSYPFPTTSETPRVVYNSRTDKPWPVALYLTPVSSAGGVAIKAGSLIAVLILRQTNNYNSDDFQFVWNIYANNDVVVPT

The subject of another data set is human Jurkat cells. Kind of data set: Prevention of FimH-induced apoptosis of Jurkat cells (24 h). On the procedure:
Eventually, we tested the ability of mannose-based inhibitors to prevent the induction of cell death of human Jurkat cells under the treatment with FimH. We cultures cells with the indicated compound for 24 h and counter percentage of viable (AnV−/Pi−), apoptotic (AnV+/Pi−) and necrotic cells (AnV+/PI+). […] 2. […] 3.
Apoptosis was induced by UV-B irradiation with 90 mJ/cm^2, apoptosis of human PMN cells was induced by 24 h aging. To quantify the rate of apoptosis, cells were analyzed by flow cytometry or fluorescent microscopy. Amongst other features, apoptosis is characterized by blebbing of the cellular membrane, leading to a decrease in the forward scatter (FSC) and an increase in the sideward scatter (SSC). For detection of phosphatidylserine (PS) exposure on the cell surface staining with FITC conjugated annexin V (Böhringer, Mannheim, Germany) in combination with propidium iodide (PI) (AxV/PI) was performed. 200.000 cells were stained for 30 minutes at 4° C. with 200 ng of AxV-FITC and 500 ng propidium iodide (PI) in 500 μl Ringer's solution [Nicoletti, Migliorati, Pagliacci, Grignani and Riccardi, A rapid and simple method for measuring thymocyte apoptosis by propidium iodide staining and flow cytometry. J Immunol Methods, 1991. 139.271-9]. The samples were immediately analyzed by flow cytometry of fluorescent microscopy.

A further data set deals with T2, lectin domain of FimH (Escherichia coli, UniProt P08191).
T2 construct: The lectin domain of FimH was expressed as described previously and purified at pH 4.0; made in house
T2 sequence (P08191 22-179): as above
Kind of data set: Surface plasmon resonance solution competition assay. The format is binding. The settings on record: solution affinity. On the procedure: The affinity of the compounds was first evaluated and then measured in a surface plasmon resonance solution competition assay. The lectin domain of FimH was expressed as described previously and purified at pH 4.0 in 50 mM HCOOH on a SPFF (sulfopropyl fast flow) ion exchange column (GE Healthcare). A CM5 sensor chip (Biacore, GE Healthcare) has been coated with a layer of amino-functionalized monovalent heptyl mannoside to 60 RU (response units) and the kinetics of FimH binding to the sensor chip has been determined. All data collection have been performed in HBS buffer complemented with 3 mM EDTA and 0.01% Tween20. Regeneration was done with a single 10 s injection of 100 mM NaOH in water.
The solution affinity provided by the Biacore software uses the equation (B−A−Kd)/2+(0.25*(A+B+Kd)^2−A*B)^0.5, with B presenting the uninhibited concentration of FimH, and A the variable compound concentration.

Another data set has as its system UTI89 E. coli. As to the kind of experiment: Inhibition of haemagglutination (Example 19). The format is cell-based, Escherichia coli. The settings on record: two-fold dilution from 1 mM. On the procedure: Interaction of E. coli FimH adhesins with the glycocalyx of guinea pig erythrocytes forms a cross-linked network into the wells. Glycoconjugates added in a two-fold dilution series prevents the agglutination reaction. The inhibition titer is defined as the lowest concentration of the glycoconjugate at which haemagglutination is still inhibited. UTI89 E. coli were grown statically overnight in LB at 37° C., washed three times in ice-cold phosphate-buffered saline and resolubilized. A two-fold dilution of glycoconjugates was prepared in 25 μL 20 mM HEPES pH 7.4 with 150 mM NaCl, starting from 1 mM as the highest concentration. The bacterial solution (25 μL) was added to the two-fold dilution series of the compound. Finally 50 μl of guinea pig red blood cells, washed in buffer and diluted to 5%, were added to a final 100 μL and left on ice for 30 min. before read-out. Due to serial dilutions, the maximal error is ±one well, or a factor two (FIG. 2).

Consider `Cc1nc(-c2cnccn2)sc1C(=O)c1cnc(N[C@H]2OC(CO)[C@@H](O)[C@H](O)C2O)s1` (mixture of isomers) [Compound 13, 2-(α-D-mannopyranosyl)amino-5-(4-methyl-2-(pyrazin-2-yl)thiazole-5-carbonyl)thiazole], for which the “Effect on amount of dead cell in population” value in the data set on Caco-2 cells (100 nM alone) is reported as “no significant effect”. Besides, the “Dead cells in population” value with Caco-2 cells (co-treatment with microparticles-FimH and 100 nM) worked out at 16.5%. For the same compound, the “Inhibitory potency in HAI (in words)” value in data set [1] is reported as “second most potent compound”. The “Toxicity towards human blood cells (Jurkat T-cell line)” value in the data set on human Jurkat T-cell line is “nontoxic”. Also, the “Level of inhibition compared to the HM reference” value on FimH [2] was “significantly higher level of inhibition”. In addition, the “Concentration blocking FimH binding towards oligomannose glycans” value on FimH [2] (RNAseB substrate) was 5 nM. Also, the figures for the Residual adhesion in data set [3] (0.1 μM) and in data set [3] (10 μM) were 57.6% and 2.12%, respectively. The “Inhibitory effect on adhesion” value in [3] (100 nM) is recorded as “significant inhibitory effect”. The “AIEC remaining attached to the cells (residual adhesion)” value in data set [3] (1 μM) is 14%. Moreover, the “rIC relative to HM” value in [3] (dose-dependent inhibition similar to HM at 100-fold lower concentration) is ~0.01. The “Efficiency relative to D-mannose” value in [4] stood at 100 fold. In addition, the Bacterial adhesion result in data set [4] (0.1 μmol, 1 h) is listed as “significant decrease”.

Regarding `CC(=O)c1cnc(N[C@H]2O[C@H](CO)[C@@H](O)[C@H](O)[C@@H]2O)s1` [Compound 6, 5-acetyl-2-((α-D-mannopyranosyl)amino)thiazole], the Kd was determined as 197 nM on FimH [5], 216 nM at lectin domain of FimH (measurement 1) and 220 ± 7.71 nM on lectin domain of FimH (measurement 2). In the data set on human Jurkat cells (500 nM), the “Prevention of apoptosis induction by FimH” value is “effectively prevented apoptosis induction”. In the data set on human Jurkat cells (tested concentrations, 24 h), the “Toxicity to Jurkat cells” value is on record as “not toxic”. In the data set on UTI89 E. coli, the “Inhibitory potency in haemagglutination (FIG. 2)” value is given as “equivalent to the one for HM”. Moreover, the “Inhibitory potency in HAI (in words)” value in data set [1] is on record as “less potent than HM”.

For the origin of these results see patent publication US10273313B2, “Multimeric mannosides, a process for preparing the same and their uses as a drug” (CENTRE NATIONAL DE LA RECHERCHE SCIENTIFIQUE, priority 2012, dated 2019).
